Drawing on patent US20100249093A1, “Substituted Heteroarylpiperidine Derivatives As Melanocortin-4 Receptor Modulators” (SANTHERA PHARMACEUTICALS (SCHWEIZ) AG, priority 2007, published 2010), this text covers Emax, IC50 and EC50 for 36 molecules.

pEC50, pIC50: −log10 of the molar value.

Experiment [1] concerns the target T1, human melanocortin-4 receptor (MC-4R) (Homo sapiens, UniProt P32245).
T1 construct: expressed in transfected cells; host or cells: HEK293
As to the kind of experiment: Functional assay: agonistic activity, cAMP production in membrane preparations compared with NDP-alpha-MSH, fluorescence polarization. Format: biochemical. The settings on record: for Emax: cAMP produced compared to stimulation with NDP-alpha-MSH, read-out: % activation functional assay; for pEC50: cAMP production, membrane preparations from HEK293 cells expressing human MC-4R, read-out: hMC-4R functional assay EC50. A general note: Cyclic AMP is a second messenger, typically raised through Gs and lowered through Gi signalling.

Experiment [2] deals with T1, human melanocortin-4 receptor (MC-4R). As to the kind of experiment: Membrane binding assay: competition with fluorescence labeled NDP-alpha-MSH, fluorescence polarization. The conditions noted are these: HEK293 cell membrane preparations expressing human MC-4R, read-out: hMC-4R binding assay IC50. For orientation: Polarisation of emitted light reports the rotation of a fluorescent probe.

T1 sequence (P32245 whole entry): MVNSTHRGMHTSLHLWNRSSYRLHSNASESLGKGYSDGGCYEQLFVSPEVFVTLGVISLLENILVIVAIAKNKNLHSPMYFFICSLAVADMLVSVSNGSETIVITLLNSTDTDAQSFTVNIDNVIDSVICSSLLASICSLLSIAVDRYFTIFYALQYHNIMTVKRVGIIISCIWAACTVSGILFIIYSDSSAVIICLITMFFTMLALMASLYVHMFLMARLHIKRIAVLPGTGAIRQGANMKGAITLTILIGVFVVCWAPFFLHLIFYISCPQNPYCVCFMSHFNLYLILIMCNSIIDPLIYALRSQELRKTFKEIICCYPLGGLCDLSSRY

For orientation: pIC50 means −log10 of the IC50, conventionally taken in molar units. As to `CC[C@H](COc1cc(C)cnc1C1CCN(C(=O)[C@@H](Cc2ccc(Cl)cc2Cl)NC(=O)N2CCCC2)CC1)N(C)C` [Example 27], the Emax in experiment [1] was determined as 0%. Moreover, the pIC50 in experiment [2] is not below 7.00.

For `CN1CCC[C@H]1COc1cccnc1C1CCN(C(=O)[C@@H](Cc2ccc(Cl)cc2Cl)NC(=O)N2CCCC2)CC1` [Example 44], in experiment [1], the Emax is -4%. Besides, the negative logarithm of the IC50 (pIC50) in experiment [2] is 6.00 to 7.00.

Turning to `CC[C@H](COc1cccnc1C1CCN(C(=O)[C@@H](Cc2ccc(Cl)cc2Cl)NC(=O)N(CC)CC)CC1)N1CCCC1` [Example 78], the Emax in experiment [1] turned out to be 0%. Further, in experiment [2], the pIC50 was not below 7.00.

Turning to `CC[C@H](COc1cccnc1C1CCN(C(=O)[C@@H](Cc2ccc(Cl)cc2Cl)NC(=O)N2CC(O)C2)CC1)N(C)C` [Example 102], the Emax in experiment [1] is -1%. Further, the pIC50 in experiment [2] is not below 7.00.

As to `CC[C@@H](CN1CCCC1)Oc1ncc(C)cc1C1CCN(C(=O)[C@@H](Cc2ccc(Cl)cc2Cl)NC(=O)N2CCCC2)CC1` [Example 9], the Emax in experiment [1] stood at 0%. For the same molecule, the pIC50 in experiment [2] was not below 7.00.

Consider `C[C@H](Oc1cccnc1C1CCN(C(=O)[C@@H](Cc2ccc(Cl)cc2Cl)NC(=O)N2CCCC2)CC1)[C@@H](C)N(C)C` [Example 22], for which, in experiment [1], the Emax is 0%. Moreover, the pIC50 in experiment [2] is not below 7.00.

In the case of `CC[C@H](COc1cccnc1C1CCN(C(=O)[C@@H](Cc2ccc(C)cc2C)NC(=O)N2CCCC2)CC1)N1CCCC1` [Example 70], the Emax in experiment [1] is -2%. The pIC50 in experiment [2] is not below 7.00.

For `CN1CCC[C@H](Oc2cccnc2C2CCN(C(=O)[C@@H](Cc3ccc(Cl)cc3Cl)NC(=O)N3CCCC3)CC2)C1` [Example 21], the Emax in experiment [1] stood at 0%. Besides, the pIC50 in experiment [2] was not below 7.00.

Turning to `CC[C@H](COc1cc(OC)cnc1C1CCN(C(=O)[C@@H](Cc2ccc(Cl)cc2Cl)NC(=O)N2CCCC2)CC1)N(C)C` [Example 36], in experiment [1], the Emax was found to be 8%. In experiment [2], the pIC50 is not below 7.00.

As to `CC[C@H](COc1cccnc1C1CCN(C(=O)[C@@H](Cc2ccc(Cl)cc2Cl)NC(=O)N2CCOC[C@@H]2C)CC1)N1CCCC1` [Example 92], the Emax in experiment [1] was 0%. Further, the pIC50 in experiment [2] is not below 7.00.

With `CN1CCN(Cc2cc(Cl)cnc2C2CCN(C(=O)[C@@H](Cc3ccc(Cl)cc3Cl)NC(=O)N3CCCC3)CC2)CC1` [Example 39], the Emax in experiment [1] is -13%. Moreover, the pIC50 in experiment [2] is not below 7.00.

For the molecule `CC[C@H](COc1cccnc1C1CCN(C(=O)[C@@H](Cc2ccc(Cl)cc2Cl)NC(=O)N2CCC[C@@H]2C(C)(C)O)CC1)N(C)C` [Example 121], the Emax in experiment [1] is -6%. In experiment [2], the pIC50 is not below 7.00.

Turning to `C[C@@H](CN(C)C)Oc1cccnc1C1CCN(C(=O)[C@@H](Cc2ccc(Cl)cc2Cl)NC(=O)N2CCCC2)CC1` [Example 15], the Emax in experiment [1] was determined as 0%. For the same molecule, the pIC50 in experiment [2] was not below 7.00.

The pEC50 is the EC50 on a negative log10 scale, so that one unit is a factor of ten. On to `CC[C@@H](CN(C)C)Oc1cccnc1C1CCN(C(=O)[C@@H](Cc2ccc(Cl)cc2Cl)NC(=O)N2CCCC2)CC1` [Example 32], for which, in experiment [1], the Emax is 36% and the pEC50 is less than 6.00. Moreover, the pIC50 in experiment [2] is not below 7.00.

Turning to `CC[C@H](COc1cccnc1C1CCN(C(=O)[C@@H](Cc2ccc(Cl)cc2Cl)NC(=O)N2CC(O)(C(F)(F)F)C2)CC1)N(C)C` [Example 129], the Emax in experiment [1] was -5%. Moreover, in experiment [2], the pIC50 was not below 7.00.

With `CN1CCC[C@H](Oc2cccnc2C2CCN(C(=O)[C@@H](Cc3ccc(Cl)cc3Cl)NC(=O)N3CC[C@@H](O)C3)CC2)C1` [Example 143], the Emax in experiment [1] is -1%. For the same molecule, the pIC50 in experiment [2] is not below 7.00.

As for `CC[C@H](COc1cccnc1C1CCN(C(=O)[C@@H](Cc2ccc(Cl)cc2Cl)NC(=O)N2CC(O)(C(C)C)C2)CC1)N(C)C` [Example 122], the Emax in experiment [1] stood at 0%. Also, the pIC50 in experiment [2] is not below 7.00.

As for `CC[C@@H](CN(C)C)Oc1cccnc1C1CCN(C(=O)[C@@H](Cc2ccc(Cl)cc2Cl)NC(=O)N(C)CC)CC1` [Example 135], the Emax in experiment [1] was determined as 3%. For the same molecule, the pIC50 in experiment [2] is not below 7.00.

Take `CC(C)[C@H](COc1cccnc1C1CCN(C(=O)[C@@H](Cc2ccc(Cl)cc2Cl)NC(=O)N2CCCC2)CC1)N(C)C` [Example 30]: the Emax in experiment [1] was -8%. Also, in experiment [2], the pIC50 was not below 7.00.

Take `CC[C@H](COc1cccnc1C1CCN(C(=O)[C@@H](Cc2ccc(Cl)cc2Cl)NC(=O)N(C)C2COC2)CC1)N(C)C` [Example 133]: the Emax in experiment [1] was -6%. Also, the negative logarithm of the IC50 (pIC50) in experiment [2] is not below 7.00.

Consider `CC[C@H](COc1cccnc1C1CCN(C(=O)[C@@H](Cc2ccc(Cl)cc2Cl)NC(=O)N2CC[C@H]2CO)CC1)N(C)C` [Example 127], for which the Emax in experiment [1] is -3%. In addition, in experiment [2], the pIC50 is not below 7.00.

As to `CN1CC[C@@H](Oc2cccnc2C2CCN(C(=O)[C@@H](Cc3ccc(Cl)cc3Cl)NC(=O)N3CCCC3)CC2)C1` [Example 43], the Emax in experiment [1] amounted to 0%. In experiment [2], the pIC50 was 6.00 to 7.00.

For the molecule `CN1CCN(Cc2cc(F)cnc2C2CCN(C(=O)[C@@H](Cc3ccc(Cl)cc3Cl)NC(=O)N3CC(O)C3)CC2)CC1` [Example 144], the Emax in experiment [1] came to 2%. In addition, in experiment [2], the pIC50 is not below 7.00.

For the molecule `CC[C@H](COc1cc(Cl)cnc1C1CCN(C(=O)[C@@H](Cc2ccc(Cl)cc2Cl)NC(=O)N2CCCC2)CC1)N1CCCC1` [Example 40], in experiment [1], the Emax is -11%. The pIC50 in experiment [2] was not below 7.00.

As for `CC[C@H](COc1cccnc1C1CCN(C(=O)[C@@H](Cc2ccc(Cl)cc2Cl)NC(=O)N2CCC2)CC1)N1CCCC1` [Example 76], the Emax in experiment [1] was determined as 0%. The negative-log IC50 (pIC50) in experiment [2] was not below 7.00.

Take `CC[C@H](COc1cccnc1C1CCN(C(=O)[C@@H](Cc2ccc(Cl)cc2Cl)NC(=O)N2CCCC2)CC1)N(C)C` [Example 18]: in experiment [1], the Emax was 0%. In addition, in experiment [2], the negative-log IC50 (pIC50) is not below 7.00.

For the molecule `Cc1ccc(C2CCN(C(=O)[C@@H](Cc3ccc(F)cc3Cl)NC(=O)N3CCCC3)CC2)c(N2CCN(C)CC2)n1` [Example 66], in experiment [1], the Emax is 0%. Moreover, the pIC50 in experiment [2] was 6.00 to 7.00.

For `CC[C@H](COc1cccnc1C1CCN(C(=O)[C@@H](Cc2ccc(Cl)cc2Cl)NC(=O)N(C)CCO)CC1)N1CCCC1` [Example 86], in experiment [1], the Emax was 0%. In addition, the pIC50 in experiment [2] was not below 7.00.

Take `Cc1ccc(C2CCN(C(=O)[C@@H](Cc3ccc(Cl)cc3F)NC(=O)N3CCCC3)CC2)c(N2CCN(C)CC2)n1` [Example 65]: in experiment [1], the Emax worked out at 0%. For the same molecule, in experiment [2], the pIC50 was not below 7.00.

As to `CC[C@H](COc1cc(C)cnc1C1CCN(C(=O)[C@@H](Cc2ccc(Cl)cc2Cl)NC(=O)N2CCCC2)CC1)N1CCCC1` [Example 24], the Emax in experiment [1] stood at 0%. The pIC50 in experiment [2] was not below 7.00.

For `CN1CC[C@@H](COc2cccnc2C2CCN(C(=O)[C@@H](Cc3ccc(Cl)cc3Cl)NC(=O)N3CCCC3)CC2)C1` [Example 54], the Emax in experiment [1] was 10%. Besides, the pIC50 in experiment [2] is 6.00 to 7.00.

For the molecule `Cc1cnc(N(C)CCN2CCCC2)c(C2CCN(C(=O)[C@@H](Cc3ccc(Cl)cc3Cl)NC(=O)N3CCCC3)CC2)c1` [Example 3], the Emax in experiment [1] came out at 0%. For the same molecule, the negative-log IC50 (pIC50) in experiment [2] was 6.00 to 7.00.

In the case of `CC[C@H](COc1cccnc1C1CCN(C(=O)[C@@H](Cc2ccc(Cl)cc2Cl)NC(=O)N2C[C@H]3C[C@H]3C2)CC1)N1CCCC1` [Example 97], the Emax in experiment [1] is 8%. In addition, the pIC50 in experiment [2] is not below 7.00.

In the case of `CC[C@H](COc1cccnc1C1CCN(C(=O)[C@@H](Cc2ccc(Cl)cc2Cl)NC(=O)N2CC[C@H](F)C2)CC1)N1CCCC1` [Example 90], in experiment [1], the Emax is 0%. The pIC50 in experiment [2] is not below 7.00.

As to `CC[C@H](COc1cccnc1C1CCN(C(=O)[C@@H](Cc2ccc(Cl)cc2Cl)NC(=O)N2CC[C@H](O)C2)CC1)N(C)C` [Example 103], in experiment [1], the Emax is -9% and the negative-log EC50 (pEC50) was not below 7.00. In addition, the pIC50 in experiment [2] is not below 7.00.

As to `CC[C@H](COc1cccnc1C1CCN(C(=O)[C@@H](Cc2ccc(Cl)cc2Cl)NC(=O)N2C[C@@H](C)O[C@@H](C)C2)CC1)N1CCCC1` [Example 93], the Emax in experiment [1] was found to be 0%. Further, the pIC50 in experiment [2] was not below 7.00.
